Results on 37 molecules are retold here after patent US8575156B2, “Cyclic inhibitors of 11β-hydroxysteroid dehydrogenase 1” (Vitae Pharmaceuticals, Inc., priority 2007, dated 2013).

Molecules are shown by their SMILES. Like-named read-outs stand apart in the source and are kept apart here. Some results are limits rather than exact numbers.

The assay concerns the target 11β-HSD1 (Homo sapiens, UniProt P28845). The experiment in a line: biochemical. Particulars: for IC50: IC50 Range, Biological Test Example 1, microsomes from CHO cells overexpressing human 11β-HSD1; for inhibition at 0.1111 µM: read-out: Average % inhibition at 111.1 nM, Biological Test Example 1, 111.1 nM compound.
[1] abbreviates: read-out: Average % inhibition at 100 nM, Biological Test Example 1, 100 nM.
The mark [2] stands for this setting: read-out: Average % inhibition at 100 nM, Biological Test Example 1, 100 nM compound.

Chain of 11β-HSD1 (P28845 whole entry): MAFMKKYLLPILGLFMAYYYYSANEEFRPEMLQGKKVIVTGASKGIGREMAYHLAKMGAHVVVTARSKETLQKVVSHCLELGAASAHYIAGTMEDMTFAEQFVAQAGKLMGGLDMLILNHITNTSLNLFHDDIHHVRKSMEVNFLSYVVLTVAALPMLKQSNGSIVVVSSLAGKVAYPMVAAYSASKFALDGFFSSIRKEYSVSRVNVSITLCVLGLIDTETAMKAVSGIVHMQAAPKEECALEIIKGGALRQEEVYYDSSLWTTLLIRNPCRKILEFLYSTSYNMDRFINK

Usually IC50 stands for the concentration that gives 50% inhibition. Low readings indicate greater potency in that assay, high ones weaker potency in that assay. As a reminder, the inhibition is how much of the control response was suppressed. In turn, `C=CCCC1(c2ccc(F)cc2)CCN([C@@H](C)c2ccc(OC(F)F)cc2)C(=O)O1` (single isomer, unassigned) [EXAMPLE 323 Isomer 1] yielded an IC50 below 0.1 µM. The inhibition at 0.1 µM (read-out: Average % inhibition at 100 nM) is 85.9%.
For the molecule `CC(O)C[C@]1(c2ccc(F)cc2)CCN([C@@H](C)c2ccc(Br)cc2)C(=O)O1` (single isomer, unassigned) [EXAMPLE 371 Isomer 1], the IC50 is below 0.1 µM. In addition, the inhibition at 0.1 µM under setting [1] amounted to 98.4%.
`CC(O)CC[C@]1(c2ccc(F)cc2)CCN([C@@H](C)c2ccc(Cl)cc2)C(=O)O1` (single isomer, unassigned) [EXAMPLE 383 Isomer 1]: the IC50 was below 0.1 µM. The inhibition at 0.1 µM under setting [1] worked out at 94.7%.
`CC(O)C[C@]1(c2ccc(F)cc2)CCN([C@@H](C)c2ccc(C(F)(F)F)cc2)C(=O)O1` (single isomer, unassigned) [EXAMPLE 388 Isomer 1]: the IC50 is below 0.1 µM. In addition, the inhibition at 0.1 µM under setting [1] worked out at 92.8%.
The corresponding values for `CC(O)CC[C@]1(c2ccc(F)cc2)CCN([C@@H](C)c2ccc(F)cc2)C(=O)O1` (single isomer, unassigned) [EXAMPLE 411 Isomer 1] are below 0.1 µM and 88.7%.
The corresponding values for `COc1ccc([C@H](C)N2CC[C@](C)(c3ccc(CO)cc3)OC2=O)cc1` (single isomer, unassigned) [EXAMPLE 429 Isomer 1] are below 0.1 µM and 77.9%.
In the same order, the values of `COc1ccc([C@H](C)N2CC[C@@](C)(c3ccc(CO)cc3)OC2=O)cc1` (single isomer, unassigned) [EXAMPLE 429 Isomer 2] are above 0.1 µM and 23%.
In turn, `C=CC[C@@]1(c2ccc(F)cc2)CCN([C@@H](C)c2ccc(Cl)c(F)c2)C(=O)O1` (single isomer, unassigned) [EXAMPLE 497 Isomer 1] yielded an IC50 below 0.1 µM.
Molecule `C=CC[C@]1(c2ccc(F)cc2)CCN([C@@H](C)c2ccc(Cl)c(F)c2)C(=O)O1` (single isomer, unassigned) [EXAMPLE 497 Isomer 2] gave an IC50 below 0.1 µM.
On the same count and under the same terms, to `C=CC[C@@]1(c2ccc(F)cc2)CCN([C@H](C)c2ccc(Cl)c(F)c2)C(=O)O1` (single isomer, unassigned) [EXAMPLE 497 Isomer 3] belongs above 0.1 µM; to `C=CC[C@]1(c2ccc(F)cc2)CCN([C@H](C)c2ccc(Cl)c(F)c2)C(=O)O1` (single isomer, unassigned) [EXAMPLE 497 Isomer 4], below 0.1 µM.
`C[C@@H](c1ccc(Br)cc1)N1CC[C@@](CCC(N)=O)(c2ccc(F)cc2F)OC1=O` (single isomer, unassigned) [EXAMPLE 504 Isomer 1] displayed an IC50 below 0.1 µM. For the same molecule, the inhibition at 0.1 µM under setting [1] turned out to be 49.9%.
Molecule `C[C@@H](c1ccc(Br)cc1)N1CC[C@](CCC(N)=O)(c2ccc(F)cc2F)OC1=O` (single isomer, unassigned) [EXAMPLE 504 Isomer 2] registered an IC50 below 0.1 µM. For the same molecule, the inhibition at 0.1 µM under setting [1] stood at 94.4%.
`C[C@@H](c1ccc(Br)cc1)N1CC[C@@](C)(c2ccc(F)cc2)OC1=O` (single isomer, unassigned) [EXAMPLE 518 Isomer 1] had an IC50 below 0.1 µM. Further, under setting [1], the inhibition at 0.1 µM worked out at 92.2%.
Consider `C[C@@H](c1ccc(Br)cc1)N1CC[C@](C)(c2ccc(F)cc2)OC1=O` (single isomer, unassigned) [EXAMPLE 518 Isomer 2], for which the IC50 is below 0.1 µM. Further, the inhibition at 0.1 µM under setting [1] was found to be 98%.
In turn, `Cc1cc(-c2ccc([C@H](C)N3CCC(C)(c4ccc(F)cc4)OC3=O)cc2)ccn1` (single isomer, unassigned) [EXAMPLE 519 Isomer 1] came in with an IC50 below 0.1 µM.
As for `CC(C[C@]1(c2ccc(F)cc2)CCN([C@@H](C)c2ccc(Br)cc2)C(=O)O1)C(N)=O` (single isomer, unassigned) [EXAMPLE 523 Isomer 1], the IC50 is below 0.1 µM. For the same molecule, the inhibition at 0.1 µM under setting [1] amounted to 94.5%.
The corresponding values for `CC(CO)C[C@]1(c2ccc(F)cc2)CCN([C@@H](C)c2ccc(Br)cc2)C(=O)O1` (single isomer, unassigned) [EXAMPLE 577 Isomer 1] are below 0.1 µM and 99.5%.
Turning to `CC1(c2ccccc2)CCN(c2cccc(-c3ccccc3Cl)c2)C(=O)O1` (centres unmarked) [EXAMPLE 10, 3-(2′-chlorobiphenyl-3-yl)-6-methyl-6-phenyl-1,3-oxazinan-2-one], the IC50 is below 0.1 µM and the inhibition at 0.1111 µM is 90.5%.
The corresponding values for `CC1(c2ccccc2)CCN(c2cccc(-c3ccc(S(C)(=O)=O)cc3)c2)C(=O)O1` (centres unmarked) [EXAMPLE 11, 3-(4′-Methanesulfonyl-biphenyl-3-yl)-6-methyl-6-phenyl-[1,3]oxazinan-2-one] are 0.1 to 1 µM and 28.4%.
In the same order, the values of `CC1(c2ccccc2)CCN(c2cccc(-c3ccccc3C#N)c2)C(=O)O1` (centres unmarked) [EXAMPLE 12, 3′-(6-Methyl-2-oxo-6-phenyl-[1,3]oxazinan-3-yl)-biphenyl-2-carbonitrile] are below 0.1 µM and 86.4%.
The corresponding values for `CC(C)NS(=O)(=O)c1ccc(-c2cccc(N3CCC(C)(c4ccccc4)OC3=O)c2)cc1` (centres unmarked) [EXAMPLE 13, N-isopropyl-3′-(6-methyl-2-oxo-6-phenyl-1,3-oxazinan-3-yl)biphenyl-4-sulfonamide] are 0.1 to 1 µM and 19.2%.
With `CN(C)S(=O)(=O)c1cccc(-c2cccc(N3CCC(C)(c4ccccc4)OC3=O)c2)c1` (centres unmarked) [EXAMPLE 14, N,N-dimethyl-3′-(6-methyl-2-oxo-6-phenyl-1,3-oxazinan-3-yl)biphenyl-3-sulfonamide], the IC50 is 0.1 to 1 µM and the inhibition at 0.1111 µM came to 21.9%.
In the case of `CC1(c2ccccc2)CCN(c2cccc(-c3ccccc3S(C)(=O)=O)c2)C(=O)O1` (centres unmarked) [EXAMPLE 15, 6-methyl-3-(2′-(methylsulfonyl)biphenyl-3-yl)-6-phenyl-1,3-oxazinan-2-one], the IC50 was in the range of 0.1 to 1 µM and the inhibition at 0.1111 µM was 38.5%.
In the same order, the values of `CC1(c2ccccc2)CCN(c2cccc(-c3ccc(S(=O)(=O)N4CCCC4)cc3)c2)C(=O)O1` (centres unmarked) [EXAMPLE 16, 6-methyl-6-phenyl-3-(4′-(pyrrolidin-1-ylsulfonyl)biphenyl-3-yl)-1,3-oxazinan-2-one] are 0.1 to 1 µM and 35.7%.
The corresponding values for `CC1(c2ccccc2)CCN(c2cccc(-c3cccc(C#N)c3)c2)C(=O)O1` (centres unmarked) [EXAMPLE 17, 3′-(6-methyl-2-oxo-6-phenyl-1,3-oxazinan-3-yl)biphenyl-3-carbonitrile] are below 0.1 µM and 58.8%.
As for `COCCNC(=O)c1cccc(-c2cccc(N3CCC(C)(c4ccccc4)OC3=O)c2)c1` (centres unmarked) [EXAMPLE 18, N-(2-methoxyethyl)-3′-(6-methyl-2-oxo-6-phenyl-1,3-oxazinan-3-yl)biphenyl-3-carboxamide], the IC50 was in the range of 0.1 to 1 µM and the inhibition at 0.1111 µM was determined as 7.2%.
As for `CC1(c2ccccc2)CCN(c2cccc(-c3ccc(CNS(C)(=O)=O)cc3)c2)C(=O)O1` (centres unmarked) [EXAMPLE 19, N-((3′-(6-methyl-2-oxo-6-phenyl-1,3-oxazinan-3-yl)biphenyl-4-yl)methyl)methanesulfonamide], the IC50 was 0.1 to 1 µM and the inhibition at 0.1111 µM came to 24%.
In the same order, the values of `COc1ccccc1-c1cccc(N2CCC(C)(c3ccccc3)OC2=O)c1` (centres unmarked) [EXAMPLE 21, 3-(2′-methoxybiphenyl-3-yl)-6-methyl-6-phenyl-1,3-oxazinan-2-one] are below 0.1 µM and 76.7%.
In the same order, the values of `CC1(c2ccccc2)CCN(c2cccc(-c3c(Cl)cccc3Cl)c2)C(=O)O1` (centres unmarked) [EXAMPLE 22, 3-(2′,6′-dichlorobiphenyl-3-yl)-6-methyl-6-phenyl-1,3-oxazinan-2-one] are below 0.1 µM and 88.9%.
Consider `CC1(c2ccccc2)CCN(c2cccc(-c3cccc(Cl)c3)c2)C(=O)O1` (centres unmarked) [EXAMPLE 24, 3-(3′-chlorobiphenyl-3-yl)-6-methyl-6-phenyl-1,3-oxazinan-2-one], for which the IC50 is below 0.1 µM and the inhibition at 0.1111 µM was determined as 86%. For the same molecule, under setting [2], the inhibition at 0.1 µM stood at 93.4%.
`CC1(c2ccccc2)CCN(c2cccc(-c3cc(F)ccc3F)c2)C(=O)O1` (centres unmarked) [EXAMPLE 26, 3-(2′,5′-difluorobiphenyl-3-yl)-6-methyl-6-phenyl-1,3-oxazinan-2-one]: the IC50 is below 0.1 µM and the inhibition at 0.1111 µM is 87%. Under setting [2], the inhibition at 0.1 µM was determined as 88.2%.
On to `CC1(c2ccccc2)CCN(c2cccc(-c3cc(F)cc(F)c3)c2)C(=O)O1` (centres unmarked) [EXAMPLE 27, 3-(3′,5′-difluorobiphenyl-3-yl)-6-methyl-6-phenyl-1,3-oxazinan-2-one], for which the IC50 was below 0.1 µM and the inhibition at 0.1111 µM amounted to 67%.
Regarding `CC1(c2ccccc2)CCN(c2cccc(-c3cccc(NS(C)(=O)=O)c3)c2)C(=O)O1` (centres unmarked) [EXAMPLE 29, N-(3′-(6-methyl-2-oxo-6-phenyl-1,3-oxazinan-3-yl)biphenyl-3-yl)methanesulfonamide], the IC50 lay in the range of 0.1 to 1 µM and the inhibition at 0.1111 µM stood at 29.8%.
For the molecule `CNS(=O)(=O)c1cccc(-c2cccc(N3CCC(C)(c4ccccc4)OC3=O)c2)c1` (centres unmarked) [EXAMPLE 30, N-methyl-3′-(6-methyl-2-oxo-6-phenyl-1,3-oxazinan-3-yl)biphenyl-3-sulfonamide], the IC50 was in the range of 0.1 to 1 µM and the inhibition at 0.1111 µM was found to be 23.1%.
As for `CNC(=O)c1cccc(-c2cccc(N3CCC(C)(c4ccccc4)OC3=O)c2)c1` (centres unmarked) [EXAMPLE 31, N-methyl-3′-(6-methyl-2-oxo-6-phenyl-1,3-oxazinan-3-yl)biphenyl-3-carboxamide], the IC50 lay within 0.1 to 1 µM and the inhibition at 0.1111 µM is 27.5%.
The corresponding values for `CC1(c2ccccc2)CCN(c2cccc(-c3cccc(N)c3)c2)C(=O)O1` (centres unmarked) [EXAMPLE 32, 3-(3′-aminobiphenyl-3-yl)-6-methyl-6-phenyl-1,3-oxazinan-2-one] are 0.1 to 1 µM and 46%.
